System: MMP-1, MMP-2, MMP-3, MMP-9 and MMP-13
Experiment: not given
Conditions: prior art, non-selective inhibitors; cited from earlier work
In the case of `CC1(C)SCCN(S(=O)(=O)c2ccc(Oc3ccncc3)cc2)[C@H]1C(=O)NO` [AG-3340], the “inhibition of several MMPs (in words)” value is given as “inhibit both MMP-1, MMP-2, MMP-3, MMP-9 and MMP-13”.
In the case of `COc1ccc(S(=O)(=O)N(Cc2cccnc2)[C@@H](C(=O)NO)C(C)C)cc1` [CGS-27.023A], the “inhibition of several MMPs (in words)” value is given as “inhibit both MMP-1, MMP-2, MMP-3, MMP-9 and MMP-13”.

Biological target: T1, human collagenase-3 catalytic domain enzyme (MMP13) (Homo sapiens, UniProt P45452)
T1 construct: human collagenase-3 catalytic domain enzyme
Experiment: MMP13CD Thiopeptolide Assay
Assay type: biochemical
Conditions: not given
Experimental: MMP13CD Thiopeptolide Assay: Proteolysis of the thiopeptolide substrate Ac-Pro-Leu-Gly-thioester-Leu-Leu-Gly-OEt is used as the primary screen to determine IC50 values for MMP13 inhibitors. A 100 μl reaction contains 50 mM HEPES, 10 mM CaCl2, pH 7.0 (RT), 1 mM 5,5′-dithiobis(2-nitrobenzoic acid) (DTNB), 100 μM substrate, inhibitor in 2.0% DMSO and 2.5 nM human collagenase-3 catalytic domain enzyme. Inhibitors are screened from 100 μM to 0.5 nM. […] Percentage of control velocity in inhibited treatments is plotted against inhibitor concentration to calculate IC50 values.
For `O=C(NCc1ccc2c(c1)OCO2)c1ccc2[nH]c(=O)n(Cc3ccc4c(c3)OCO4)c(=O)c2c1` [Example 28, 3-(Benzo[1,3]dioxol-5-ylmethyl)-2,4-dioxo-1,2,3,4-tetrahydroquinazoline-6-carboxylic acid (benzo[1,3]dioxol-5-ylmethyl)amide], the IC50 was 9 nM.
`O=C(NCc1ccc2c(c1)OCO2)c1ccc2[nH]c(=O)n(Cc3ccc(Cl)cc3)c(=O)c2c1` [Example 25, 3-(4-Chlorobenzyl)-2,4-dioxo-1,2,3,4-tetrahydroquinazoline-6-carboxylic acid (benzo[1,3]dioxol-5-ylmethyl)amide] showed an IC50 of 300 nM.
`O=C(OCc1ccccc1)c1cnc2[nH]c(=O)n(Cc3ccccc3)c(=O)c2c1` [Example 46, Benzyl 3-benzyl-2,4-dioxo-1,2,3,4-tetrahydroprido[2,3-d]pyrimidine-6-carboxylate] showed an IC50 of 2.5 nM.
`Cn1c(=O)n(Cc2ccc(C(=O)O)cc2)c(=O)c2cc(C(=O)NCc3ccc(O)cc3)ccc21` [Example 49, 4-[6-(4-Hydroxy-benzylcarbamoyl)-1-methyl-2,4-dioxo-1,4-dihydro-2H-quinazolin-3-ylmethyl]-benzoic acid] showed an IC50 of 7 nM.
`O=C(OCc1ccc2c(c1)OCO2)c1ccc2[nH]c(=O)n(Cc3ccccc3)c(=O)c2c1` [Example 41, Benzo[1,3]dioxol-5-ylmethyl3-benzyl-2,4-dioxo-1,2,3,4-tetrahydroquinazoline-6-carboxylate] showed an IC50 of 29 nM.
For `Cc1ccc(CNC(=O)c2ccc3[nH]c(=O)n(Cc4ccccc4)c(=O)c3c2)cc1` [Example 8, 3-Benzyl-2,4-dioxo-1,2,3,4-tetrahydroquinazoline-6-carboxylic acid 4-methylbenzylamide], the IC50 was 1870 nM.
In the case of `Cn1c(=O)n(Cc2ccc(Cl)cc2)c(=O)c2cc(C(=O)NCc3ccc4c(c3)OCO4)ccc21` [Example 26, 3-(4Chlorobenzyl)-1-methyl-2,4-dioxo-1,2,3,4-tetrahydroquinazoline-6-carboxylic acid (benzo[1,3]dioxol-5-ylmethyl)amide], the IC50 is reported as 96 nM.
`C=CCn1c(=O)c2cc(C(=O)NCc3ccc(OC)cc3)ccc2n(C)c1=O` [Example 52, 3-Allyl-1-methyl-2,4-dioxo-1,2,3,4-tethydro-quinazoline-6-carboxylic acid 4-methoxy-benzylamiide] showed an IC50 of 14 nM.
In the case of `O=C(OCc1ccncc1)c1ccc2[nH]c(=O)n(Cc3cccs3)c(=O)c2c1` [Example 44, 4-Pyridylmethyl 2,4-dioxo-3-(thien-2-ylmethyl)-1,2,3,4-tetrahydroquinazoline-6-carboxylate], the IC50 is reported as 4 nM.

System: not given
Experiment: not given
Conditions: not given
`COc1cccc(CNC(=O)c2ccc3c(c2)c(=O)n(Cc2ccc(Cl)cc2)c(=O)n3C)c1` gave a melting point of 178 to 180 °C.
Compound `Cn1c(=O)n(Cc2ccccc2)c(=O)c2cc(S(=O)(=O)Cc3ccccc3)ccc21` has a melting point of 173 to 175 °C.
Compound `Cn1c(=O)n(Cc2ccccc2)c(=O)c2cc([S+]([O-])Cc3ccccc3)ccc21` (stereo not shown) has a melting point of 182 to 183 °C.
For `COc1ccc(CNC(=O)c2ccc3c(c2)c(=O)n(Cc2ccc(-c4noc(=O)[nH]4)cc2)c(=O)n3C)cc1`, the melting point was 305 °C.
With `Cn1c(=O)n(Cc2ccc(Cl)cc2)c(=O)c2cc(C(=O)NCc3cccnc3)ccc21` the melting point was 173 to 175 °C.
In the case of `COc1ccc(CNC(=O)c2ccc3c(c2)c(=O)n(Cc2ccc(C4(C(=O)O)CC4)cc2)c(=O)n3C)cc1`, the melting point is reported as 179 to 181 °C.
With `COc1ccc(CNC(=O)c2ccc3c(c2)c(=O)n(Cc2ccc(C(=O)OCCN(C)C)c(OC)c2)c(=O)n3C)cc1` the melting point was 130 °C.
With `Cn1c(=O)n(Cc2ccc(F)cc2)c(=O)c2cc(C(=O)NCc3cccnc3)ccc21` the melting point was 166 to 168 °C.
`Cn1c(=O)n(Cc2ccccc2)c(=O)c2cc(SCc3ccccc3)ccc21` gave a melting point of 117 to 118 °C.
Compound `O=C(NCc1ccc2c(c1)OCO2)c1ccc2[nH]c(=O)n(Cc3ccc4c(c3)OCO4)c(=O)c2c1` [Example 28, 3-(Benzo[1,3]dioxol-5-ylmethyl)-2,4-dioxo-1,2,3,4-tetrahydroquinazoline-6-carboxylic acid (benzo[1,3]dioxol-5-ylmethyl)amide] has a melting point of 245.2 °C.
Compound `Cn1c(=O)n(Cc2ccccc2)c(=O)c2cc(C(=O)OC/C=C/c3cccnc3)ccc21` has a melting point of 184 °C.
For `COc1cc(CNC(=O)c2ccc3c(c2)c(=O)n(Cc2ccc(F)cc2)c(=O)n3C)ccn1`, the melting point was 174 to 175 °C.
In the case of `Cn1c(=O)n(Cc2ccccc2)c(=O)c2cc(C(=O)OC/C=C/c3ccncc3)ccc21`, the melting point is reported as 147 °C.
With `COc1ccc(CNC(=O)c2ccc3c(c2)c(=O)n(Cc2ccc(C4(C(=O)OC(C)(C)C)CC4)cc2)c(=O)n3C)cc1` the melting point was 148 to 149 °C.

— patent publication US20020193377A1, “Quinazolines as MMP-13 inhibitors” (priority 2001, published 2002)
